Values of other authors, collected in patent US6423677B1, “Cleaner/degreaser concentrate compositions” (Buckeye International, Inc., priority 1995, dated 2002).

conditions: in water, ambient temperature

Row | SMILES | aqueous ambient temperature solubility
1 | CC(O)COc1ccccc1 (centres unmarked) [1-phenoxy-2-propanol] | 1.1 wt. %
2 | OCCOc1ccccc1 [2-phenoxyethanol] | 2.3 wt. %
3 | CCN(CC)c1ccccc1 [N,N-diethylaniline] | 1.4 wt. %
4 | c1ccc(N2CCOCC2)cc1 [N-phenylmorpholine] | 1.0 wt. %
5 | CC(=O)c1ccccc1 [acetophenone] | 0.5 wt. %
6 | O=Cc1ccccc1 [benzaldehyde] | 0.3 wt. %
7 | OCc1ccccc1 [benzyl alcohol] | 4.4 wt. %
8 | O=C1CCCCC1 [cyclohexanone] | 2.3 wt. %
9 | CCOC(=O)CCCCC(=O)OCC [diethyl adipate] | 0.43 wt. %
10 | CCOC(=O)CCCC(=O)OCC [diethyl glutarate] | 0.88 wt. %
11 | CCOC(=O)CC(=O)OCC [diethyl malonate] | 2.08 wt. %
12 | CC1=CC(=O)CC(C)(C)C1 [isophorone] | 1.2 wt. %
13 | CC(=O)CC(C)C [methylisobutyl ketone] | 2.0 wt. %
14 | CCCCCOC(C)=O [n-amyl acetate] | 0.25 wt. %
15 | CCCCCO [n-amyl alcohol] | 2.7 wt. %
16 | CCCCOC(C)=O [n-butyl acetate] | 0.7 wt. %
17 | CC[N+](=O)[O-] [nitroethane] | 4.5 wt. %
18 | OCCc1ccccc1 [β-phenylethanol] | 1.6 wt. %

same assay, conditions: in water; solvents not useful in the invention

Row | SMILES | aqueous solubility
19 | CC(C)CC(=O)CC(C)C [2,6-dimethyl-4-heptanone] | 0.05 wt. %
20 | CCCCC(CC)COCCO (centres unmarked) [2-(2-ethylhexoxy)-ethanol] | 0.095 wt. %
21 | CN1CCCC1=O [N-methyl pyrrolidone] | infinite
22 | CC1COC(=O)O1 (centres unmarked) [propylene carbonate] | 19.6 wt. %
23 | COCC(C)OC(C)=O (centres unmarked) [propylene glycol monomethyl ether acetate] | 16.5 wt. %
